Data as given in patent US20140284001A1, “SYSTEMS AND METHODS FOR SPRAY DRYING IN MICROFLUIDIC AND OTHER SYSTEMS” (President and Fellows Of Harvard College, priority 2012, published 2014).

Assay: size of spray dried nanoparticles by scanning electron microscopy (SEM)
Format: physicochemical
Conditions: dissolved in ethanol, spray dried with microfluidic nebulator, flow-focusing nebulization unit, four air inlets, 2.8 bar, 1 ml/h, collected 10 cm from outlet

- average nanoparticle diameters: 24+/−8 nm
SMILES: Clc1ccccc1C(c1ccccc1)(c1ccccc1)n1ccnc1 [clotrimazole]
